Results published in patent US7820623B2 (priority 2006, dated 2010).
Read-outs that look alike come from different tables or passages of the source. Bridge positions count the residues as written; N and C are the ends. Square brackets hold non-standard residues; d marks the D form. Peptide text beside a SMILES is read from it. 1Nal = N[C@@H](Cc1cccc2ccccc12)C(=O)O

Assays:
[1] = test system: thapsigargin-induced IFN-g production in human whole blood; assay type: cell-based
[2] = test system: thapsigargin-induced IL-2 production in human whole blood
[3] = read-out: Analogue Activity (IC50) WB/IFNg
[4] = read-out: Analogue Activity (IC50) WB/IL-2

Compound: CC[C@H](C)[C@@H]1NC(=O)[C@H](CCCCN)NC(=O)[C@@H](NC(=O)[C@H](CCCCN)NC(=O)[C@@H](NC(=O)[C@H](CC(N)=O)NC(=O)[C@@H](NC(=O)[C@@H](NC(=O)[C@@H](NC(=O)CN)C(C)C)[C@@H](C)CC)[C@@H](C)CC)C(C)C)CSSC[C@@H]2NC(=O)[C@H](CCCCN)NC(=O)CNC(=O)[C@H](Cc3ccccc3)NC(=O)[C@H](CCCNC(=N)N)NC(=O)[C@H](CCSC)NC(=O)CNC(=O)[C@H](C)NC(=O)[C@H](CCCCN)NC(=O)[C@H](CCCCN)NC(=O)[C@@H]3CSSC[C@@H](C(=O)N[C@H](C(=O)N4CCC[C@H]4C(=O)N[C@@H](CCC(=O)O)C(=O)O)[C@@H](C)O)NC(=O)[C@H](Cc4c[nH]cn4)NC(=O)[C@H](CSSC[C@H](NC(=O)[C@H](CCC(N)=O)NC(=O)[C@H](CCCNC(=N)N)NC(=O)[C@H](CO)NC1=O)C(=O)N[C@@H](CC(C)C)C(=O)N[C@@H](CCC(=O)O)C(=O)N1CCC[C@H]1C(=O)N3)NC(=O)[C@H](CCCCN)NC(=O)CNC(=O)[C@H](CC(N)=O)NC(=O)[C@H](CCSC)NC2=O [K38E] (H-GVIINVKCKISRQCLEPCKKAGMRFGKCMNGKCHCTPE-OH; disulfide 8-28, 14-33, 18-35)
- IC50 [1, 3]: 713 pM
- IC50 [2, 4]: 526 pM

Compound: CC[C@H](C)[C@@H]1NC(=O)[C@H](CCCCN)NC(=O)[C@@H](NC(=O)[C@H](CCCCN)NC(=O)[C@@H](NC(=O)[C@H](CC(N)=O)NC(=O)[C@@H](NC(=O)[C@@H](NC(=O)[C@@H](NC(=O)CN)C(C)C)[C@@H](C)CC)[C@@H](C)CC)C(C)C)CSSC[C@@H]2NC(=O)[C@H](CCCCN)NC(=O)CNC(=O)[C@H](Cc3ccccc3)NC(=O)[C@H](CCCNC(=N)N)NC(=O)[C@H](CCSC)NC(=O)CNC(=O)[C@H](CCC(=O)O)NC(=O)[C@H](CCCCN)NC(=O)[C@H](CCCCN)NC(=O)[C@@H]3CSSC[C@@H](C(=O)N[C@H](C(=O)N4CCC[C@H]4C(=O)N[C@@H](CCCCN)C(=O)O)[C@@H](C)O)NC(=O)[C@H](Cc4c[nH]cn4)NC(=O)[C@H](CSSC[C@H](NC(=O)[C@H](CCC(N)=O)NC(=O)[C@H](CCCNC(=N)N)NC(=O)[C@H](CO)NC1=O)C(=O)N[C@@H](CC(C)C)C(=O)N[C@@H](CCC(=O)O)C(=O)N1CCC[C@H]1C(=O)N3)NC(=O)[C@H](CCCCN)NC(=O)CNC(=O)[C@H](CC(N)=O)NC(=O)[C@H](CCSC)NC2=O [A21E] (H-GVIINVKCKISRQCLEPCKKEGMRFGKCMNGKCHCTPK-OH; disulfide 8-28, 14-33, 18-35)
- IC50 [1, 3]: 138 pM
- IC50 [2, 4]: 117 pM

Compound: CC[C@H](C)[C@H](NC(=O)[C@@H](NC(=O)CN)C(C)C)C(=O)N[C@H](C(=O)N[C@@H](CC(N)=O)C(=O)N[C@H](C(=O)N[C@@H](CCCCN)C(=O)N[C@H]1CSSC[C@@H]2NC(=O)[C@H](CCCCN)NC(=O)CNC(=O)[C@H](Cc3ccccc3)NC(=O)[C@H](CCCNC(=N)N)NC(=O)[C@H](CCSC)NC(=O)CNC(=O)[C@H](C)NC(=O)[C@H](CCCCN)NC(=O)[C@H](CCCCN)NC(=O)[C@@H]3CSSC[C@@H](C(=O)N[C@H](C(=O)N4CCC[C@H]4C(=O)N[C@@H](CCCCN)C(=O)O)[C@@H](C)O)NC(=O)[C@H](Cc4c[nH]cn4)NC(=O)[C@H](CSSC[C@H](NC(=O)[C@H](CCC(N)=O)NC(=O)[C@H](CCCNC(=N)N)NC(=O)[C@H](CO)NC(=O)[C@H](CCC(=O)O)NC(=O)[C@H](CCCCN)NC1=O)C(=O)N[C@@H](CC(C)C)C(=O)N[C@@H](CCC(=O)O)C(=O)N1CCC[C@H]1C(=O)N3)NC(=O)[C@H](CCCCN)NC(=O)CNC(=O)[C@H](CC(N)=O)NC(=O)[C@H](CCSC)NC2=O)C(C)C)[C@@H](C)CC [I10E] (H-GVIINVKCKESRQCLEPCKKAGMRFGKCMNGKCHCTPK-OH; disulfide 8-28, 14-33, 18-35)
- IC50 [1, 3]: 2740 pM
- IC50 [2, 4]: 2570 pM

Compound: CC[C@H](C)[C@@H]1NC(=O)[C@H](CCCCN)NC(=O)[C@@H](NC(=O)[C@H](CCCCN)NC(=O)[C@@H](NC(=O)[C@H](CC(N)=O)NC(=O)[C@@H](NC(=O)[C@@H](NC(=O)[C@@H](NC(=O)CN)C(C)C)[C@@H](C)CC)[C@@H](C)CC)C(C)C)CSSC[C@@H]2NC(=O)[C@H](CCCCN)NC(=O)CNC(=O)[C@H](C)NC(=O)[C@H](CCCNC(=N)N)NC(=O)[C@H](CCSC)NC(=O)CNC(=O)[C@H](C)NC(=O)[C@H](CCCCN)NC(=O)[C@H](CCCCN)NC(=O)[C@@H]3CSSC[C@@H](C(=O)N[C@H](C(=O)N4CCC[C@H]4C(=O)N[C@@H](CCCCN)C(=O)O)[C@@H](C)O)NC(=O)[C@H](Cc4c[nH]cn4)NC(=O)[C@H](CSSC[C@H](NC(=O)[C@H](CCC(N)=O)NC(=O)[C@H](CCCNC(=N)N)NC(=O)[C@H](CO)NC1=O)C(=O)N[C@@H](CC(C)C)C(=O)N[C@@H](CCC(=O)O)C(=O)N1CCC[C@H]1C(=O)N3)NC(=O)[C@H](CCCCN)NC(=O)CNC(=O)[C@H](CC(N)=O)NC(=O)[C@H](CCSC)NC2=O [F25A] (H-GVIINVKCKISRQCLEPCKKAGMRAGKCMNGKCHCTPK-OH; disulfide 8-28, 14-33, 18-35)
- IC50 [1, 3]: 3080 pM
- IC50 [2, 4]: 3080 pM

Compound: GVIINVKCKISPQCLKPCKDAGIRFGKCINGKCACTPK
- IC50 ([1]; read-out: Average IC50 IFNg): 513 pM
- IC50 ([2]; read-out: Average IC50 IL-2): 514 pM

Compound: CC[C@H](C)[C@@H]1NC(=O)[C@H](CCCCN)NC(=O)[C@@H](NC(=O)[C@H](CCCCN)NC(=O)[C@@H](NC(=O)[C@H](CC(N)=O)NC(=O)[C@@H](NC(=O)[C@@H](NC(=O)[C@@H](NC(=O)CN)C(C)C)[C@@H](C)CC)[C@@H](C)CC)C(C)C)CSSC[C@@H]2NC(=O)[C@H](CCCCN)NC(=O)CNC(=O)[C@H](Cc3ccccc3)NC(=O)[C@H](CCCNC(=N)N)NC(=O)[C@H](CCSC)NC(=O)CNC(=O)[C@H](C)NC(=O)[C@H](CCCCN)NC(=O)[C@H](CCCCN)NC(=O)[C@@H]3CSSC[C@@H](C(=O)N[C@H](C(=O)N4CCC[C@H]4C(=O)N[C@@H](CCCCN)C(=O)O)[C@@H](C)O)NC(=O)[C@H](Cc4c[nH]cn4)NC(=O)[C@H](CSSC[C@H](NC(=O)[C@H](CCC(N)=O)NC(=O)[C@H](CCCNC(=N)N)NC(=O)[C@H](CO)NC1=O)C(=O)N[C@@H](CC(C)C)C(=O)N[C@@H](CCC(=O)O)C(=O)N1CCC[C@H]1C(=O)N3)NC(=O)[C@H](CCCCN)NC(=O)[C@H](Cc1cccc3ccccc13)NC(=O)[C@H](CC(N)=O)NC(=O)[C@H](CCSC)NC2=O [G31Nal] (H-GVIINVKCKISRQCLEPCKKAGMRFGKCMN[1Nal]KCHCTPK-OH; disulfide 8-28, 14-33, 18-35)
- IC50 [1, 3]: 467 pM
- IC50 [2, 4]: 331 pM

Compound: CC[C@H](C)[C@@H]1NC(=O)[C@H](CCCCN)NC(=O)[C@@H](NC(=O)[C@H](CCCCN)NC(=O)[C@@H](NC(=O)[C@H](CC(N)=O)NC(=O)[C@@H](NC(=O)[C@@H](NC(=O)[C@H](Cc2cccc3ccccc23)NC(=O)CN)[C@@H](C)CC)[C@@H](C)CC)C(C)C)CSSC[C@@H]2NC(=O)[C@H](CCCCN)NC(=O)CNC(=O)[C@H](Cc3ccccc3)NC(=O)[C@H](CCCNC(=N)N)NC(=O)[C@H](CCSC)NC(=O)CNC(=O)[C@H](C)NC(=O)[C@H](CCCCN)NC(=O)[C@H](CCCCN)NC(=O)[C@@H]3CSSC[C@@H](C(=O)N[C@H](C(=O)N4CCC[C@H]4C(=O)N[C@@H](CCCCN)C(=O)O)[C@@H](C)O)NC(=O)[C@H](Cc4c[nH]cn4)NC(=O)[C@H](CSSC[C@H](NC(=O)[C@H](CCC(N)=O)NC(=O)[C@H](CCCNC(=N)N)NC(=O)[C@H](CO)NC1=O)C(=O)N[C@@H](CC(C)C)C(=O)N[C@@H](CCC(=O)O)C(=O)N1CCC[C@H]1C(=O)N3)NC(=O)[C@H](CCCCN)NC(=O)CNC(=O)[C@H](CC(N)=O)NC(=O)[C@H](CCSC)NC2=O [V2Nal] (H-G[1Nal]IINVKCKISRQCLEPCKKAGMRFGKCMNGKCHCTPK-OH; disulfide 8-28, 14-33, 18-35)
- IC50 [1, 3]: 524 pM
- IC50 [2, 4]: 750 pM
